Source: patent US8343536B2, “Biofilm-inhibiting medical products” (Cook Biotech Incorporated, priority 2007, dated 2013)

System: mice
Experiment: Mouse subcutaneous implant method, in vivo angiogenesis and tolerability of BisEDT coated SIS (Example 7)
Conditions: 10 or 100 μg/cm^2 on SIS, 3 weeks
Protocol: The Example was performed to compare the in vivo angiogenic response to SIS compared to 2 levels of BisEDT coated SIS. The model used to detect in vivo angiogenesis was the mouse subcutaneous implant method as generally described by Heeschen et al., Nat. Med. […]; 7:833-9.
BisEDT was obtained from Microbion, Inc. as previously described. All SIS based grafts were made from 4-layer lyophilized sheets as described in the previous Examples. Sample groups consisted of this material coated with 10 μg/cm^2 BisEDT or 100 μg/cm^2 BisEDT. Each material was cut into ten 15 mm discs. Nylon filters with 0.22 μm pores were sewn on to the top and bottom of each disc. Low temperature ethylene oxide sterilization was used for each sample.
Samples were implanted subcutaneously into the dorsal flanks of mice. After anesthesia using Ketamine (87 mg/kg) and Xylazine (13 mg/kg), a small incision was made on the posterior neck of the mouse and a dorsal subcutaneous cavity was created using blunt dissection with hemostats. This was followed by sample placement and closure of the incision with 4 interrupted stitches of 5-0 suture. Six mice per group underwent disc implantation. The implant remained in the mice for a period of 3 weeks followed by probing for capillary formation.
Mice were sacrificed using a double dose of anesthesia to ensure intact flow in vasculature. While the heart was still beating, the chest cavity was exposed, vena cava severed, and 10 ml of heparized saline injected into the left ventricle using a 23 ga butterfly infusion set to exsanguinate the mouse. After transferring syringes (while maintaining infusion needle in left ventricle), 4 ml of a fluorescent microsphere (yellow-green, 0.1 μm diameter, Molecular Probes, F-8803) suspension (1:20 dilution of stock suspension) was injected through the left ventricle resulting in perfusion of the entire vasculature. Care was taken to ensure no bubbles were introduced during the injections, as bubbles will cause micro-emboli obstructing consistent perfusion. […]

bismuth-1,2-ethanedithiol [BisEDT]
Angiogenic potential of coated SIS: neither level of BisEDT (10 or 100 μg/cm^2) coated onto the SIS affected the angiogenic potential | Local toxicity at explant: no visual evidence of local toxicity at explant | Systemic toxicity: no observed symptoms of systemic toxicity
